# Laboratory results taken from patent US11498946B2, “Pharmaceutical composition for combination therapy for preventing or treating cancer containing tumor-specific drug conjugate and anti-PD-L1 antibody as active ingredients” (KOREA INSTITUTE OF SCIENCE AND TECHNOLOGY, priority 2019, dated 2022).
# Experiments:
# [1] = test system: HT-29 colorectal cancer cells; test: Tumor-treating effect in vivo, tumor volume depending on time, HT-29 tumor animal model; set-up: species or system athymic nude mice; details: HT-29 tumor in nude mice; FDOX or DOX 4 mg/kg intravenously, anti-PD-L1 antibody 10 mg/kg intraperitoneally, 3-day intervals
# Procedure: The following comparison groups were prepared to compare the efficiency of the test group.
# Control group (control): identical to the test group except that no drug was administered.
# First comparison group (FDOX): identical to the test group except that only the formulated drug conjugate (FDOX) was administered without the anti-PD-L1 antibody.
# Second comparison group (DOX+PD-L1 Ab): identical to the test group except that 4 mg/kg of doxorubicin was administered intravenously instead of the formulated drug conjugate (FDOX).
# [2] = set-up: species or system athymic nude mice; details: mouse, in vivo
# Procedure: For the animal models of the second and third comparison groups, the organs were extracted on day 20 after the drug administration because the animals died within 20 days. After preparing tissues of each extracted organ into 10-μm thick sections, cell death in the organ was evaluated by staining cancerous tissues with annexin V. In addition, the tissues extracted from the major organs (heart, kidney, spleen, lung and liver) were stained with hematoxylin and eosin for investigation of the structural change in the tissues and toxicity.
# [3] = In-vivo toxicity by body weight depending on time, and death, in tumor-bearing mice; details: HT-29 tumor-bearing nude mice
# Procedure: Specifically, athymic nude mice (6-week-old, 20-25 g, male) purchased from Nara Bio (Gyenggi-do, Korea) were used. In order to express colorectal cancers in the male nude mice, a tumor animal model was prepared by subcutaneously inoculating 1×10^7 HT-29 colorectal cancer cells into left thighs. […] The formulated drug conjugate (FDOX) was administered intravenously at a concentration of 4 mg/kg, and the anti-PD-L1 antibody was administered intraperitoneally at a concentration of 10 mg/kg. A test group (FDOX+PD-L1 Ab) was prepared by administering the two therapeutic agents at 3-day intervals.
# For the test group, the control group and the first, second and third comparison groups, tumor size was measured at 2-day intervals and calculated as maximum diameter×minimum diameter. In addition, the body weight of each group was measured at 2-day intervals to investigate in-vivo toxicity.
smiles,measurement,setting,value
"COc1cccc2c1C(=O)c1c(O)c3c(c(O)c1C2=O)C[C@@](O)(C(=O)CO)C[C@@H]3O[C@H]1C[C@H](N)[C@H](O)[C@H](C)O1 [DOX, doxorubicin]",tumor growth (tumor volume depending on time),[1],could be delayed but could not be completely inhibited
same,change in the major organs (H&E),[2],"long-term toxicity such as hemorrhage, disruption of tissue structure, enucleation"
same,in-vivo / systemic toxicity,[3],fatal side effect leading to death
